# According to ChEMBL document CHEMBL1201862, “PubChem BioAssay data set” (2004):
#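 Values below derive from 48-hour exposures of cells grown in 96-well plates, with endpoints linearly interpolated between the two concentrations bracketing the appropriate inhibition level. GI50 marks 50% less growth.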 Activity calls are given as the source filed them. Cut-off read from the data, not from the text of the source: active = GI50 up to about 1.1 µM and inactive = higher.
# Assays:
# Test in all cases: NCI-60 cell line screen, 48 h
# HCT-15 = test system: HCT-15
# OVCAR-4 = test system: OVCAR-4
# PC-3 = test system: PC-3
# CAKI-1 = test system: CAKI-1
# CCRF-CEM = test system: CCRF-CEM
# RPMI-8226 = test system: RPMI-8226
# IGROV-1 = test system: IGROV-1
# DU-145 = test system: DU-145
# OVCAR-5 = test system: OVCAR-5
# HT-29 = test system: HT-29
# UACC-62 = test system: UACC-62
# EKVX = test system: EKVX
# SK-MEL-2 = test system: SK-MEL-2
# T47D = test system: T47D
# HOP-62 = test system: HOP-62
# LOX IMVI = test system: LOX IMVI
# COLO 205 = test system: COLO 205
# SNB-75 = test system: SNB-75
# Malme-3M = test system: Malme-3M
# NCI-H522 = test system: NCI-H522
# Hs-578T = test system: Hs-578T
# SW-620 = test system: SW-620
# HOP-92 = test system: HOP-92
# K562 = test system: K562
# MDA-N = test system: MDA-N
# A549 = test system: A549
# NCI/ADR-RES = test system: NCI/ADR-RES
# UO-31 = test system: UO-31
# NCI-H23 = test system: NCI-H23
# KM12 = test system: KM12
# OVCAR-8 = test system: OVCAR-8
# SK-OV-3 = test system: SK-OV-3
# UACC-257 = test system: UACC-257
# HL-60 = test system: HL-60
# SK-MEL-5 = test system: SK-MEL-5
# NCI-H226 = test system: NCI-H226
# 786-0 = test system: 786-0
# SR = test system: SR
# SF-268 = test system: SF-268
# SF-539 = test system: SF-539
# A498 = test system: A498
# SK-MEL-28 = test system: SK-MEL-28
# BT-549 = test system: BT-549
# HCT-116 = test system: HCT-116
# OVCAR-3 = test system: OVCAR-3
# HCC 2998 = test system: HCC 2998
# SNB-19 = test system: SNB-19
# MDA-MB-231 = test system: MDA-MB-231
# TK-10 = test system: TK-10
# NCI-H460 = test system: NCI-H460
# RXF 393 = test system: RXF 393
# ACHN = test system: ACHN
# MCF7 = test system: MCF7
# SF-295 = test system: SF-295
# U-251 = test system: U-251
# MDA-MB-435 = test system: MDA-MB-435
# M14 = test system: M14
# SN12C = test system: SN12C
structure (smiles),measurement,setting,value
CC1=CC=CC(C)(C)CC1(O[Si](C)(C)C)C(F)(F)F (stereo unspecified),GI50,HCT-15,> 100 µM
same,GI50,OVCAR-4,> 100 µM (inactive)
same,GI50,PC-3,> 100 µM (inactive)
same,GI50,CAKI-1,> 100 µM (inactive)
same,GI50,CCRF-CEM,> 100 µM (inactive)
same,GI50,RPMI-8226,> 100 µM (inactive)
same,GI50,IGROV-1,26.6 µM (inactive)
same,GI50,DU-145,> 100 µM (inactive)
same,GI50,OVCAR-5,> 100 µM (inactive)
same,GI50,HT-29,46.8 µM (inactive)
same,GI50,UACC-62,> 100 µM (inactive)
same,GI50,EKVX,82.6 µM (inactive)
same,GI50,SK-MEL-2,> 100 µM (inactive)
same,GI50,T47D,> 100 µM (inactive)
same,GI50,HOP-62,> 100 µM (inactive)
same,GI50,LOX IMVI,> 100 µM (inactive)
same,GI50,COLO 205,72.3 µM (inactive)
same,GI50,SNB-75,> 100 µM (inactive)
same,GI50,Malme-3M,> 100 µM (inactive)
same,GI50,NCI-H522,43.3 µM (inactive)
same,GI50,Hs-578T,> 100 µM (inactive)
same,GI50,SW-620,> 100 µM (inactive)
same,GI50,HOP-92,> 100 µM (inactive)
same,GI50,K562,76.4 µM (inactive)
same,GI50,MDA-N,> 100 µM (inactive)
same,GI50,A549,64.3 µM (inactive)
same,GI50,NCI/ADR-RES,> 100 µM (inactive)
same,GI50,UO-31,> 100 µM (inactive)
same,GI50,NCI-H23,> 100 µM (inactive)
same,GI50,KM12,> 100 µM (inactive)
same,GI50,OVCAR-8,> 100 µM (inactive)
same,GI50,SK-OV-3,> 100 µM (inactive)
same,GI50,UACC-257,> 100 µM (inactive)
same,GI50,HL-60,28.9 µM (inactive)
same,GI50,SK-MEL-5,> 100 µM (inactive)
same,GI50,NCI-H226,> 100 µM (inactive)
same,GI50,786-0,> 100 µM (inactive)
same,GI50,SR,> 100 µM (inactive)
same,GI50,SF-268,> 100 µM (inactive)
same,GI50,SF-539,> 100 µM (inactive)
same,GI50,A498,> 100 µM (inactive)
same,GI50,SK-MEL-28,> 100 µM (inactive)
same,GI50,BT-549,> 100 µM (inactive)
same,GI50,HCT-116,> 100 µM (inactive)
same,GI50,OVCAR-3,> 100 µM (inactive)
same,GI50,HCC 2998,> 100 µM (inactive)
same,GI50,SNB-19,> 100 µM (inactive)
same,GI50,MDA-MB-231,> 100 µM (inactive)
same,GI50,TK-10,> 100 µM (inactive)
same,GI50,NCI-H460,> 100 µM (inactive)
same,GI50,RXF 393,> 100 µM (inactive)
same,GI50,ACHN,> 100 µM (inactive)
same,GI50,MCF7,92.7 µM (inactive)
same,GI50,SF-295,> 100 µM (inactive)
same,GI50,U-251,98.9 µM (inactive)
same,GI50,MDA-MB-435,> 100 µM (inactive)
same,GI50,M14,> 100 µM (inactive)
same,GI50,SN12C,> 100 µM (inactive)
CSc1ccc2c(c1)c(CCN)c(C)n2Cc1ccccc1Cl,GI50,HCT-15,2.02 µM
same,GI50,OVCAR-4,1.73 µM (inactive)
same,GI50,PC-3,1.52 µM (inactive)
same,GI50,CAKI-1,1.95 µM (inactive)
same,GI50,CCRF-CEM,1.51 µM (inactive)
same,GI50,RPMI-8226,1.42 µM (inactive)
same,GI50,IGROV-1,1.61 µM (inactive)
same,GI50,DU-145,1.66 µM (inactive)
same,GI50,OVCAR-5,1.85 µM (inactive)
same,GI50,HT-29,1.6 µM (inactive)
same,GI50,UACC-62,1.65 µM (inactive)
same,GI50,EKVX,1.62 µM (inactive)
same,GI50,SK-MEL-2,1.8 µM (inactive)
same,GI50,T47D,1.57 µM (inactive)
same,GI50,HOP-62,1.18 µM (inactive)
same,GI50,LOX IMVI,1.83 µM (inactive)
same,GI50,COLO 205,1.67 µM (inactive)
same,GI50,SNB-75,1.61 µM (inactive)
same,GI50,Malme-3M,1.69 µM (inactive)
same,GI50,NCI-H522,1.5 µM (inactive)
same,GI50,Hs-578T,1.67 µM (inactive)
same,GI50,SW-620,1.78 µM (inactive)
same,GI50,HOP-92,1.26 µM (inactive)
same,GI50,K562,1.69 µM (inactive)
same,GI50,MDA-N,1.64 µM (inactive)
same,GI50,A549,1.68 µM (inactive)
same,GI50,NCI/ADR-RES,2.03 µM (inactive)
same,GI50,UO-31,1.52 µM (inactive)
same,GI50,NCI-H23,1.93 µM (inactive)
same,GI50,KM12,1.82 µM (inactive)
same,GI50,OVCAR-8,1.79 µM (inactive)
same,GI50,SK-OV-3,2 µM (inactive)
same,GI50,UACC-257,1.73 µM (inactive)
same,GI50,HL-60,1.56 µM (inactive)
same,GI50,SK-MEL-5,1.72 µM (inactive)
same,GI50,NCI-H226,1.66 µM (inactive)
same,GI50,786-0,1.72 µM (inactive)
same,GI50,SR,2.42 µM (inactive)
same,GI50,SF-268,1.76 µM (inactive)
same,GI50,SF-539,1.37 µM (inactive)
same,GI50,A498,1.71 µM (inactive)
same,GI50,SK-MEL-28,1.75 µM (inactive)
same,GI50,BT-549,3.26 µM (inactive)
same,GI50,HCT-116,1.63 µM (inactive)
same,GI50,OVCAR-3,1.86 µM (inactive)
same,GI50,HCC 2998,0.74 µM (active)
same,GI50,SNB-19,1.77 µM (inactive)
same,GI50,MDA-MB-231,1.84 µM (inactive)
same,GI50,TK-10,1.73 µM (inactive)
same,GI50,NCI-H460,1.55 µM (inactive)
same,GI50,RXF 393,1.4 µM (inactive)
same,GI50,ACHN,1.69 µM (inactive)
same,GI50,MCF7,1.85 µM (inactive)
same,GI50,SF-295,1.82 µM (inactive)
same,GI50,U-251,1.66 µM (inactive)
same,GI50,MDA-MB-435,1.67 µM (inactive)
same,GI50,M14,1.72 µM (inactive)
same,GI50,SN12C,1.58 µM (inactive)
